Results reported in patent US20250108036A1, “COMPOSITIONS FOR REMOVING SENESCENT CELLS AND USES THEREOF” (LIFECEUTIX CO., LTD., priority 2021, published 2025).
Where two headings read alike, the source gives them in different places.

What was measured:
Type in all cases: cell-based, human
HMGN1 [1] = test: HMGN1 ELISA in culture medium of foreskin cells (Examples 10, 11; Tables 62, 63, 64); settings: Homo sapiens; for activity at 90 µM: 90 μM test compound; for activity at 30 µM: read-out: HMGN1
HMGN1 [2] = test: HMGN1 ELISA in culture medium of A549 cancer cells (Example 12, Table 66); settings: Homo sapiens; for activity at 90 µM: test compound 90 μM
[3] = test system: foreskin cells in which senescence was induced by doxorubicin; test: CellTiter-Glo cell viability of doxorubicin-induced senescent foreskin cells (Examples 1-2, 10, 11, 13; Tables 4, 63, 65); settings: Homo sapiens, 72 h, read-out: Survival (%); for viability at 30 µM: 30 μM test compound; for viability at 90 µM: 90 μM test compound; for viability at […]: […] test compound
Method: After 3 days, cell viability was measured using CellTiter-Glo Luminescent Cell Viability Assay (Promega) or light microscopy.

A549 = test: CellTiter-Glo cell viability of senescent A549 cancer cells (Example 12, Table 67); settings: Homo sapiens; for viability at 90 µM: 90 μM test compound
[4] = doxorubicin-treated foreskin cells, DMSO = 100
[5] = A549, doxorubicin-induced senescent A549 cells, ELISA, DMSO = 100, read-out: HMGN1 (amount of HMGN1 secreted in the cell culture)
[6] = 1.1 μM test compound, doxorubicin-induced senescent foreskin cells, CellTiter-Glo, 0 μM = 100
[7] = 10 μM test compound, doxorubicin-induced senescent foreskin cells, CellTiter-Glo, 0 μM = 100
[8] = doxorubicin-induced senescent foreskin cells, CellTiter-Glo, 0 μM = 100
[9] = A549, doxorubicin-induced senescent A549 cancer cells, 1.1 μM test compound, CellTiter-Glo, read-out: Survival (%)
[10] = A549, doxorubicin-induced senescent A549 cancer cells, 10 μM test compound, CellTiter-Glo, read-out: Survival (%)
[11] = A549, doxorubicin-induced senescent A549 cancer cells, 30 μM test compound, CellTiter-Glo, read-out: Survival (%)
[12] = A549, doxorubicin-induced senescent A549 cancer cells, CellTiter-Glo, read-out: Survival (%)
[13] = 30 μM test compound, doxorubicin-treated foreskin cells, DMSO = 100
[14] = A549, doxorubicin-induced senescent A549 cells, test compound 30 μM, ELISA, DMSO = 100, read-out: HMGN1 (amount of HMGN1 secreted in the cell culture)

Compound | activity at 90 µM (HMGN1 [1]; [4]) [%] | activity at 90 µM (HMGN1 [2]; [5]) [%] | viability at 1.1 µM [3, 6] [%] | viability at 10 µM [3, 7] [%] | viability at 30 µM [3, 8] [%] | viability at 90 µM [3, 8] [%] | viability at […] [3, 8] [%] | viability at 1.1 µM (A549; [9]) [%] | viability at 10 µM (A549; [10]) [%] | viability at 30 µM (A549; [11]) [%] | viability at 90 µM (A549; [12]) [%] | activity at 30 µM (HMGN1 [1]; [13]) [%] | activity at 30 µM (HMGN1 [2]; [14]) [%] | activity at 30 µM (HMGN1 [1]) [%] | activity at 30 µM (HMGN1 [2]; A549, read-out: HMGN1 (amount of HMGN1 secreted in the cell culture)) [%] | viability at 1.1 µM [3] [%] | viability at 10 µM [3] [%] | viability at 1.1 µM (A549; A549, read-out: Survival (%)) [%] | viability at 10 µM (A549; A549, read-out: Survival (%)) [%] | viability at 30 µM (A549; A549, read-out: Survival (%)) [%]
CN(C)c1nc(N(C)C)nc(N(C)C)n1 [LX-501, Altretamine, reference compound] | 168 | 233 | 103 | 98.9 | 85.2 | 53.7 | 105 | 99.8 | 103 | 99.5 | 13.1 |  |  |  |  |  |  |  |  | 
CCCCS[C@@H]1O[C@@H]2O[C@@]3(C)CCC4[C@H](C)CCC([C@H]1C)[C@]42OO3 (stereo partly drawn) [LX-503] |  |  | 25.1 |  |  |  |  | 34.4 |  |  |  | 284 | 333 |  |  |  |  |  |  | 
C[C@H]1[C@H](SCc2ccccc2)O[C@@H]2O[C@@]3(C)CC[C@H]4[C@H](C)CC[C@@H]1[C@@]24OO3 [LX-505] |  |  | 35.2 |  |  |  | 0.4 | 51.1 |  |  |  | 299 | 317 |  |  |  |  |  |  | 
C[C@@H]1CC[C@H]2[C@@H](C)C(=O)O[C@@H]3O[C@@]4(C)CC[C@@H]1[C@]32OO4 [LX-506, Artemisinin, reference compound] | 169 | 169 | 101 | 91 | 78 | 33.2 | 97.2 | 109 | 93.8 | 91.4 | 44.2 |  |  |  |  |  |  |  |  | 
C=C1C(=O)O[C@H]2C1CC/C(COC(=O)/C=C/c1c(OC)cccc1OC)=C\CCC1(C)O[C@H]21 (stereo partly drawn) [LX-601] |  |  | 6.1 |  |  |  | 3.3 | 13.8 |  |  |  | 293 | 318 |  |  |  |  |  |  | 
O=S(=O)(NC1CCCCC1)c1ccc2c(c1)C(=NO)c1cc(S(=O)(=O)NC3CCCCC3)ccc1-2 [LX-602] |  |  | 79 | 25.9 | 16.1 |  | 55.2 | 102 | 99 | 41.8 | 2.7 | 248 | 248 |  |  |  |  |  |  | 
CC1(CCO)CC2(CCC(C(C)(C)C)CC2)OO1 (stereo not drawn) [LX-603] |  |  | 91.7 | 51.6 | 16.8 |  | 74.1 | 94.1 | 53.6 | 17.5 |  | 263 | 332 |  |  |  |  |  |  | 
C=C1C(=O)C2CCN1CC2 [LX-702, 2-Methylene-3-quinuclidinone] |  |  |  |  |  |  |  |  |  |  |  |  |  | 278 | 305 | 82.1 | 6.5 | 87.3 | 33.4 | 3
CN(C)C(=S)N/N=C1\CCCc2cccnc21 [LX-802, 2-(6,7-Dihydroquinolin-8(5H)-ylidene)-N^4,N^4-dimethylhydrazine-1-carbothioamide] |  |  | 42.7 |  |  |  | 5.7 | 62.7 |  |  |  | 301 | 329 |  |  |  |  |  |  | 
CCn1c2ccccc2c2cc(CNC)ccc21 [LX-901] |  | 255 | 99.5 | 67.5 | 15.8 |  | 98.4 | 97.8 | 82.7 | 34.8 | 11.7 | 257 |  |  |  |  |  |  |  | 
CCn1c2ccccc2c2cc(NC(=O)COC(=O)C3CCC(=O)N3)ccc21 (stereo not drawn) [LX-902] |  | 234 | 97.9 | 72.8 | 23.9 |  | 91.6 | 94.6 | 88.2 | 62.7 | 25.8 | 268 |  |  |  |  |  |  |  | 
